Experimental data taken from PMC7073023, “Overexpression of ABCB1 Transporter Confers Resistance to mTOR Inhibitor WYE-354 in Cancer Cells” (International Journal of Molecular Sciences, 2020).

Assays:
ABCB1 [1] = molecular target: T1, ABCB1 (Homo sapiens, UniProt P08183); assay: cell-based; set-up: full length ABCB1 (transfected HEK293); ABCB1 membrane vesicles (ATPase kit); conditions: read-out: % of the basal activity
ABCB1 [2] = molecular target: T1, ABCB1

T1 sequence (P08183 whole entry): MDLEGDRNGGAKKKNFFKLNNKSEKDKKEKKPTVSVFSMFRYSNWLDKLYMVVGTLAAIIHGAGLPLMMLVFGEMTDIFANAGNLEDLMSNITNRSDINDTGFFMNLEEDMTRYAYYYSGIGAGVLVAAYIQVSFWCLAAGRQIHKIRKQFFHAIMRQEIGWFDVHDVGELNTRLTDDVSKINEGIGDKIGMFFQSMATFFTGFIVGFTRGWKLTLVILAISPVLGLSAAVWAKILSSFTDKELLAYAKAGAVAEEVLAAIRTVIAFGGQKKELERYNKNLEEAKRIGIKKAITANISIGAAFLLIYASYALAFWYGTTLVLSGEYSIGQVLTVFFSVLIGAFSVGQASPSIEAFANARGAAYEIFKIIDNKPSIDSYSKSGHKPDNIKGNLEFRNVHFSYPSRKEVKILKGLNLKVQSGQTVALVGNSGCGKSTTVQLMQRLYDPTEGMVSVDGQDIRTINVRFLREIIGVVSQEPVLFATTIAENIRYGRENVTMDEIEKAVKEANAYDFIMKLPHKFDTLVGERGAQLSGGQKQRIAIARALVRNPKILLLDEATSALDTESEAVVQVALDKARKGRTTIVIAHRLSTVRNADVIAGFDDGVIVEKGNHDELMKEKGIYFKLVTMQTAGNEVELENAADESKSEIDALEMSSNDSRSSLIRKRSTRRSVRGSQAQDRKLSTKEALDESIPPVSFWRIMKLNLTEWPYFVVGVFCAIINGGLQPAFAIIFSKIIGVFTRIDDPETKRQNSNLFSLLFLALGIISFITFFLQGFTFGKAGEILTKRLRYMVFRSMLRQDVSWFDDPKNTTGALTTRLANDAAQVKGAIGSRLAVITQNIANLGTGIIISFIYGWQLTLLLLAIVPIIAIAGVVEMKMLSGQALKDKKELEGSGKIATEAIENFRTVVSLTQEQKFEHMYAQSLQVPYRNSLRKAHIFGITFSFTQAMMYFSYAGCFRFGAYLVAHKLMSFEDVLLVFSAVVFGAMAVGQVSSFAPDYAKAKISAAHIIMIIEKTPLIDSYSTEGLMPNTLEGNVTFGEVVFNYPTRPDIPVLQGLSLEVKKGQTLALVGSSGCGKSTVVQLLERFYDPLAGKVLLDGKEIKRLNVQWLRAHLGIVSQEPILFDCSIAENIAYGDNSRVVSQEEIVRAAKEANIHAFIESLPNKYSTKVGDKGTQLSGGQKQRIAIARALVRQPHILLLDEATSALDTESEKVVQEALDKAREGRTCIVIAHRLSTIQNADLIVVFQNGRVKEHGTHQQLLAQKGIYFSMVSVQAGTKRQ

Emax (ABCB1 [1]) | SMILES | [3H]-paclitaxel accumulation in ABCB1-overexpressing and ABCB1-transfected cells (ABCB1 [2])
141% | COC(=O)Nc1ccc(-c2nc(N3CCOCC3)c3cnn(C4CCN(C(=O)OC)CC4)c3n2)cc1 [WYE-354] | –
– | CC(=O)O[C@H]1C(=O)[C@@]2(C)[C@H]([C@H](OC(=O)c3ccccc3)[C@]3(O)C[C@H](OC(=O)[C@H](O)[C@@H](NC(=O)c4ccccc4)c4ccccc4)C(C)=C1C3(C)C)[C@]1(OC(C)=O)CO[C@@H]1C[C@@H]2O [paclitaxel] | drug–drug interaction between WYE-354 and paclitaxel, which is a known substrate of ABCB1
